Among the data in patent publication US9226916B2, “Pyrrolidine derivatives” (HOFFMANN-LA ROCHE INC., priority 2009, dated 2016) are Ki values, retold here.

Read-outs that look alike come from different tables or passages of the source.

The target in this test is T1, recombinant human NK3 receptor (Homo sapiens, UniProt P29371).
T1 construct: expressed in transfected cells; host or cells: HEK293 cells, transient expression; membranes
T1 sequence (P29371 1-465): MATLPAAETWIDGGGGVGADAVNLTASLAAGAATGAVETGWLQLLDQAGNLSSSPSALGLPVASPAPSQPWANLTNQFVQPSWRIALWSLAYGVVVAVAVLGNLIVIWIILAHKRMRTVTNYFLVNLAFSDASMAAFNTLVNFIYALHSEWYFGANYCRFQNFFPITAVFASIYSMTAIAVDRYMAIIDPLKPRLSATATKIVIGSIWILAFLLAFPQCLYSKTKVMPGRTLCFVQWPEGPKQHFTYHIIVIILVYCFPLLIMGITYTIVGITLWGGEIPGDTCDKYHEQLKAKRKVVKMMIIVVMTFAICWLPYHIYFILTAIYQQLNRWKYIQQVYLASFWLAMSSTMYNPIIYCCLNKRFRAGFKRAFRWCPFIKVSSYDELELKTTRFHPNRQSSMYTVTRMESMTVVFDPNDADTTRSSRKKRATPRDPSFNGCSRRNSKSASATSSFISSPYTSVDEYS
The test is described as follows: [3H]SR142801 competition binding assay.

As for `CN(C(=O)Oc1ccc(F)cc1)[C@@H]1CN(C(=O)C2CCN(c3ncc(C(F)(F)F)cc3Cl)CC2)C[C@H]1c1ccc(Cl)cc1` [Example 188, [(3S,4R)-4-(4-Chloro-phenyl)-1-(3′-chloro-5′-trifluoromethyl-3,4,5,6-tetrahydro-2H-[1,2]bipyridinyl-4-carbonyl)-pyrrolidin-3-yl]-methyl-carbamic acid 4-fluoro-phenyl ester], the Ki (commonly a dissociation constant, usually derived from enzyme kinetics or from competition with a known ligand) was 14.6 nM.

Regarding `CN(C(=O)Oc1ccc(F)cc1)[C@@H]1CN(C(=O)C2CCN(c3cccc(C#N)n3)CC2)C[C@H]1c1ccc(Cl)cc1` [Example 189, [(3S,4R)-4-(4-Chloro-phenyl)-1-(6′-cyano-3,4,5,6-tetrahydro-2H-[1,2′]bipyridinyl-4-carbonyl)-pyrrolidin-3-yl]-methyl-carbamic acid 4-fluoro-phenyl ester], the Ki is 3.5 nM.

Turning to `COc1cnc(N2CCC(C(=O)N3C[C@@H](N(C)C(=O)Oc4ccc(F)cc4)[C@H](c4ccc(Cl)cc4)C3)CC2)nc1` [Example 190, {(3S,4R)-4-(4-Chloro-phenyl)-1-[1-(5-methoxy-pyrimidin-2-yl)-piperidine-4-carbonyl]-pyrrolidin-3-yl}-methyl-carbamic acid 4-fluoro-phenyl ester], the Ki amounted to 17.2 nM.

In the case of `CN(C(=O)Oc1ccc(F)cc1)[C@@H]1CN(C(=O)C2CCN(c3ccncn3)CC2)C[C@H]1c1ccc(Cl)cc1` [Example 191, [(3S,4R)-4-(4-Chloro-phenyl)-1-(1-pyrimidin-4-yl-piperidine-4-carbonyl)-pyrrolidin-3-yl]-methyl-carbamic acid 4-fluoro-phenyl ester], the Ki worked out at 1.2 nM.

`CN(C(=O)Oc1ccc(F)cc1)[C@@H]1CN(C(=O)C2CCN(c3ncc(C#N)cn3)CC2)C[C@H]1c1ccc(Cl)cc1` [Example 192, {(3S,4R)-4-(4-Chloro-phenyl)-1-[1-(5-cyano-pyrimidin-2-yl)-piperidine-4-carbonyl]-pyrrolidin-3-yl}-methyl-carbamic acid 4-fluoro-phenyl ester]: the Ki was 3.6 nM.

As to `CN(C(=O)Oc1ccc(F)cc1)[C@@H]1CN(C(=O)C2CCN(c3cnc(C#N)cn3)CC2)C[C@H]1c1ccc(Cl)cc1` [Example 193, {(3S,4R)-4-(4-Chloro-phenyl)-1-[1-(5-cyano-pyrazin-2-yl)-piperidine-4-carbonyl]-pyrrolidin-3-yl}-methyl-carbamic acid 4-fluoro-phenyl ester], the Ki turned out to be 1.1 nM.

For the compound `Cc1ccc(N2CCC(C(=O)N3C[C@@H](N(C)C(=O)Oc4ccc(F)cc4)[C@H](c4ccc(Cl)cc4)C3)CC2)nc1` [Example 194, [(3S,4R)-4-(4-Chloro-phenyl)-1-(5′-methyl-3,4,5,6-tetrahydro-2H-[1,2′]bipyridinyl-4-carbonyl)-pyrrolidin-3-yl]-methyl-carbamic acid 4-fluoro-phenyl ester], the Ki was 3.5 nM.

As to `CN(C(=O)Oc1ccc(F)cc1)[C@@H]1CN(C(=O)C2CCN(c3ccc(F)cn3)CC2)C[C@H]1c1ccc(Cl)cc1` [Example 195, [(3S,4R)-4-(4-Chloro-phenyl)-1-(5′-fluoro-3,4,5,6-tetrahydro-2H-[1,2′]bipyridinyl-4-carbonyl)-pyrrolidin-3-yl]-methyl-carbamic acid 4-fluoro-phenyl ester], the Ki turned out to be 1.4 nM.

With `CN(C(=O)Oc1ccc(F)cc1)[C@@H]1CN(C(=O)C2CCN(c3ccc(C(N)=O)cn3)CC2)C[C@H]1c1ccc(Cl)cc1` [Example 196, [(3S,4R)-1-(5′-Carbamoyl-3,4,5,6-tetrahydro-2H-[1,2′]bipyridinyl-4-carbonyl)-4-(4-chloro-phenyl)-pyrrolidin-3-yl]-methyl-carbamic acid 4-fluoro-phenyl ester], the Ki was found to be 2.2 nM.

As for `COc1ccc(N2CCC(C(=O)N3C[C@@H](N(C)C(=O)Oc4ccc(F)cc4)[C@H](c4ccc(Cl)cc4)C3)CC2)nn1` [Example 197, {(3S,4R)-4-(4-Chloro-phenyl)-1-[1-(6-methoxy-pyridazin-3-yl)-piperidine-4-carbonyl]-pyrrolidin-3-yl}-methyl-carbamic acid 4-fluoro-phenyl ester], the Ki is 2.6 nM.

As to `CN(C(=O)Oc1ccc(F)cc1)[C@@H]1CN(C(=O)C2CCN(c3ccc(C#N)nc3)CC2)C[C@H]1c1ccc(Cl)cc1` [Example 198, [(3S,4R)-4-(4-Chloro-phenyl)-1-(6′-cyano-3,4,5,6-tetrahydro-2H-[1,3]bipyridinyl-4-carbonyl)-pyrrolidin-3-yl]-methyl-carbamic acid 4-fluoro-phenyl ester], the Ki was 0.5 nM.

As to `CN(C(=O)Oc1ccc(F)cc1)[C@@H]1CN(C(=O)C2CCN(c3ccc(Cl)cn3)CC2)C[C@H]1c1ccc(Cl)cc1` [Example 199, [(3S,4R)-4-(4-Chloro-phenyl)-1-(5′-chloro-3,4,5,6-tetrahydro-2H-[1,2′]bipyridinyl-4-carbonyl)-pyrrolidin-3-yl]-methyl-carbamic acid 4-fluoro-phenyl ester], the Ki came to 0.9 nM.

With `CN(C(=O)Oc1ccccc1)[C@@H]1CN(C(=O)C2CCN(c3ccc(C#N)cn3)CC2)C[C@H]1c1ccc(Cl)cc1` [Example 200, [(3S,4R)-4-(4-Chloro-phenyl)-1-(5′-cyano-3,4,5,6-tetrahydro-2H-[1,2′]bipyridinyl-4-carbonyl)-pyrrolidin-3-yl]-methyl-carbamic acid phenyl ester], the Ki was 7.2 nM.

Take `COc1ccc(OC(=O)N(C)[C@@H]2CN(C(=O)C3CCN(c4ccc(C#N)cn4)CC3)C[C@H]2c2ccc(Cl)cc2)cc1` [Example 201, [(3S,4R)-4-(4-Chloro-phenyl)-1-(5′-cyano-3,4,5,6-tetrahydro-2H-[1,2′]bipyridinyl-4-carbonyl)-pyrrolidin-3-yl]-methyl-carbamic acid 4-methoxy-phenyl ester]: the Ki was 3.3 nM.

Take `Cc1ccc(OC(=O)N(C)[C@@H]2CN(C(=O)C3CCN(c4ccc(C#N)cn4)CC3)C[C@H]2c2ccc(Cl)cc2)cc1` [Example 202, [(3S,4R)-4-(4-Chloro-phenyl)-1-(5′-cyano-3,4,5,6-tetrahydro-2H-[1,2′]bipyridinyl-4-carbonyl)-pyrrolidin-3-yl]-methyl-carbamic acid p-tolyl ester]: the Ki stood at 4.3 nM.

For the compound `CN(C(=O)Oc1ccc(Cl)cc1)[C@@H]1CN(C(=O)C2CCN(c3ccc(C#N)cn3)CC2)C[C@H]1c1ccc(Cl)cc1` [Example 203, [(3S,4R)-4-(4-Chloro-phenyl)-1-(5′-cyano-3,4,5,6-tetrahydro-2H-[1,2′]bipyridinyl-4-carbonyl)-pyrrolidin-3-yl]-methyl-carbamic acid 4-chloro-phenyl ester], the Ki came out at 0.3 nM.

With `CN(C(=O)OC1CCCC1)[C@@H]1CN(C(=O)C2CCN(c3ccc(C#N)cn3)CC2)C[C@H]1c1ccc(Cl)cc1` [Example 204, [(3S,4R)-4-(4-Chloro-phenyl)-1-(5′-cyano-3,4,5,6-tetrahydro-2H-[1,2′]bipyridinyl-4-carbonyl)-pyrrolidin-3-yl]-methyl-carbamic acid cyclopentyl ester], the Ki (hNK-3 receptor affinity, membranes from HEK293 cells transiently expressing recombinant human NK3 receptor, [3H]SR142801, Cheng-Prussoff, read-out: Data Ki) came out at 41.2 nM.

For the compound `CN(C(=O)OCC(C)(C)C)[C@@H]1CN(C(=O)C2CCN(c3ccc(C#N)cn3)CC2)C[C@H]1c1ccc(Cl)cc1` [Example 205, [(3S,4R)-4-(4-Chloro-phenyl)-1-(5′-cyano-3,4,5,6-tetrahydro-2H-[1,2′]bipyridinyl-4-carbonyl)-pyrrolidin-3-yl]-methyl-carbamic acid 2,2-dimethyl-propyl ester], the Ki stood at 5.7 nM.
